From ChEMBL document CHEMBL1140654 (Bioorg Med Chem Lett, 2007)
Blank lines part the entries; values can stand above or below the compound they belong to.

Experiments:
[1] = tested on: U-937; experiment: Inhibition of TNFalpha production in U937 cells; settings: Homo sapiens
[2] = tested on: Rattus norvegicus; experiment: Inhibition of TNFalpha production in rat at 40 mg/kg, ip administered 1 hr prior to LPS challenge; format: functional; design: scale not given: the % may be the effect or the level left; settings: route intraperitoneal
[3] = biological target: MAP kinase-activated protein kinase 2 (Homo sapiens, UniProt P49137)
Sequence of MAP kinase-activated protein kinase 2 (P49137 whole entry): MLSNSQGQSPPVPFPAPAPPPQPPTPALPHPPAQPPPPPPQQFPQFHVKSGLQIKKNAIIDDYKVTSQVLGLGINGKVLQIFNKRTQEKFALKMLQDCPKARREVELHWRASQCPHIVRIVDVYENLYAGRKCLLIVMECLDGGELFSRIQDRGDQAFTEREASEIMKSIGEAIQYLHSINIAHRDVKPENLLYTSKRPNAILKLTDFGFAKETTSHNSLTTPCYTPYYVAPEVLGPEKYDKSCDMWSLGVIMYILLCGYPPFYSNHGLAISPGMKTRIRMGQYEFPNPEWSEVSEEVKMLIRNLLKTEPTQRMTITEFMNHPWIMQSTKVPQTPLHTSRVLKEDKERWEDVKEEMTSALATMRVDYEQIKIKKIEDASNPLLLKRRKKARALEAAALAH

[4] = biological target: Mitogen-activated protein kinase 9 (Homo sapiens, UniProt P45984); experiment: Inhibition of JNK2
Sequence of Mitogen-activated protein kinase 9 (P45984 whole entry): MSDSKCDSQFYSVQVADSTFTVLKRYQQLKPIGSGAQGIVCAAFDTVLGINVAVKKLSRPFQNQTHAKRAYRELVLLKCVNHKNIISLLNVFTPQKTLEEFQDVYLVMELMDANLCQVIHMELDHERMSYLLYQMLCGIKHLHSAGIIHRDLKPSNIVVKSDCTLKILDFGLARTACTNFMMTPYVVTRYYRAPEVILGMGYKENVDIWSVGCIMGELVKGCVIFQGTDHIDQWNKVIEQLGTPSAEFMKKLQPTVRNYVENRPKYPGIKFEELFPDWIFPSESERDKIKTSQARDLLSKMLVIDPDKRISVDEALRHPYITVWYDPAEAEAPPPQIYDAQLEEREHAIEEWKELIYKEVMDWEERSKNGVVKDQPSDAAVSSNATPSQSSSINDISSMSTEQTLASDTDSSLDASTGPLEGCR

[5] = biological target: Mitogen-activated protein kinase 14 (Homo sapiens, UniProt Q16539); experiment: Inhibition of p38alpha
Sequence of Mitogen-activated protein kinase 14 (Q16539 whole entry): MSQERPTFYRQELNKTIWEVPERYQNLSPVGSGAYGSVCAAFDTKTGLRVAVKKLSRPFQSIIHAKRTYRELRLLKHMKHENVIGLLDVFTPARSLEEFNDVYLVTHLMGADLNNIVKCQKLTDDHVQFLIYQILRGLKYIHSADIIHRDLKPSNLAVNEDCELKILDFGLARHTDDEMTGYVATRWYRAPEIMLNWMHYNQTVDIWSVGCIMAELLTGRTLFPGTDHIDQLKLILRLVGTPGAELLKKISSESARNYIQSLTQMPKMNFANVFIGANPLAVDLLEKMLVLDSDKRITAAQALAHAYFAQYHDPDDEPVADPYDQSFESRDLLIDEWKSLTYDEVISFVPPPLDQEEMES

[6] = biological target: T1, Inhibitor of nuclear factor kappa-B kinase subunit beta (Homo sapiens, UniProt O14920); experiment: Inhibition of IKK2
T1 sequence (O14920 whole entry): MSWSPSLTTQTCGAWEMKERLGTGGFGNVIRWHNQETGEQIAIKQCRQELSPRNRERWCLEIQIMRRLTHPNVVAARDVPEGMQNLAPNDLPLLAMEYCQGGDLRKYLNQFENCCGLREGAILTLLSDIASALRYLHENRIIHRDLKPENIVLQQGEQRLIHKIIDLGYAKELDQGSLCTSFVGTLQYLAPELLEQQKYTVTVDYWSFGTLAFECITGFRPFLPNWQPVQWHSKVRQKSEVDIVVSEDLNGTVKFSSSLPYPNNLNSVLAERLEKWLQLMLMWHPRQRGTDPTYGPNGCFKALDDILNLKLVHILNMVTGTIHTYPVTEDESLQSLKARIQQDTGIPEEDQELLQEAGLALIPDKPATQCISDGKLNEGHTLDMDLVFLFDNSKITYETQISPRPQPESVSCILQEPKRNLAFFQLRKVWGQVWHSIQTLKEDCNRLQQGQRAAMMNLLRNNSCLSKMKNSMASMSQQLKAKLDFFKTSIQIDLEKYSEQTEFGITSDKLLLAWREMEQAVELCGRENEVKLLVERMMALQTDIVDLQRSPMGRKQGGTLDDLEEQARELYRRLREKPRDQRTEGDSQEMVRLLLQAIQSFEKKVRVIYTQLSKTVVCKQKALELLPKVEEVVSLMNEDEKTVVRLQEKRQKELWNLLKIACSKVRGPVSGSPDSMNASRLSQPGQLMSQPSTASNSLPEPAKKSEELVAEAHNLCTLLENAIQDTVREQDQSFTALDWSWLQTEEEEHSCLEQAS

[7] = biological target: T2, MAP kinase-activated protein kinase 5 (Homo sapiens, UniProt Q8IW41); experiment: Inhibition of PRAK
T2 sequence (Q8IW41 whole entry): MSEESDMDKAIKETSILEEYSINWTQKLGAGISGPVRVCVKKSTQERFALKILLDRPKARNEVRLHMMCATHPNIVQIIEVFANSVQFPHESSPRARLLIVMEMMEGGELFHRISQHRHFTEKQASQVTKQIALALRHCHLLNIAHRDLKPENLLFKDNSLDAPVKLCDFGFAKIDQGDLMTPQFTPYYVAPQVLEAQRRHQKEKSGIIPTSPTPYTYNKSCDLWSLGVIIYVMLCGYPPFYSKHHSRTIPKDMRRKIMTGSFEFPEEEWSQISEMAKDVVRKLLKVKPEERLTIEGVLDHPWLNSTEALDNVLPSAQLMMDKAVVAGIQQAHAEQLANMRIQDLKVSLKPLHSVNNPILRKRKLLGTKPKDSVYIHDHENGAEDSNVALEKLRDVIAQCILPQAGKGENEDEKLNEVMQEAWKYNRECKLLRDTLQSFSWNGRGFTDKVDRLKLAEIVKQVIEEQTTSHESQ

[8] = biological target: MAP kinase-activated protein kinase 3 (Homo sapiens, UniProt Q16644); experiment: Inhibition of MK3; format: single protein
Sequence of MAP kinase-activated protein kinase 3 (Q16644 whole entry): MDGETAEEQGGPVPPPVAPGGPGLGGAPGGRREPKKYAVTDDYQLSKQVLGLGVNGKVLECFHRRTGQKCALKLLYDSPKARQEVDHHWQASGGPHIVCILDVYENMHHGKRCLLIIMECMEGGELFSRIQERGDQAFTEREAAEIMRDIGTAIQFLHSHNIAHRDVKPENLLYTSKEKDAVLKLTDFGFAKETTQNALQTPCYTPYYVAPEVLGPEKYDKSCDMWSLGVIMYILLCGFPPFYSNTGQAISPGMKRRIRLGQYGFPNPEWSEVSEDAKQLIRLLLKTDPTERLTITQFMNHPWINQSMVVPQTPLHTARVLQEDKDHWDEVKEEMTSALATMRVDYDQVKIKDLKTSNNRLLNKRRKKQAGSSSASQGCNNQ

[9] = biological target: MAP kinase-interacting serine/threonine-protein kinase 1 (Homo sapiens, UniProt Q9BUB5); experiment: Inhibition of MNK1
Sequence of MAP kinase-interacting serine/threonine-protein kinase 1 (Q9BUB5 whole entry): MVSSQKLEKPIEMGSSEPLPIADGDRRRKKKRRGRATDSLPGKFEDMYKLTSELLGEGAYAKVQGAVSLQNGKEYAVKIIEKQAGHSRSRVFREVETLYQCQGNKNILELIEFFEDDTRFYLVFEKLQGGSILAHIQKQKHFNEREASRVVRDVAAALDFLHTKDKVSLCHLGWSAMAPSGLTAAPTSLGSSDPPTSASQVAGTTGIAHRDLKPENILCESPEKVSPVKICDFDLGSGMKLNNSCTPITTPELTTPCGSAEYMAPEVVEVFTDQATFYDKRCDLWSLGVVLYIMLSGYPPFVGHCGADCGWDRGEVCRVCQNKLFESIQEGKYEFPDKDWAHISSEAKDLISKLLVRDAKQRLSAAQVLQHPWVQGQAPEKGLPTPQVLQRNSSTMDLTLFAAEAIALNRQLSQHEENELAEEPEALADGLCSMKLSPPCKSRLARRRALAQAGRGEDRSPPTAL

[10] = biological target: Ribosomal protein S6 kinase alpha-5 (Homo sapiens, UniProt O75582); experiment: Inhibition of MSK1
Sequence of Ribosomal protein S6 kinase alpha-5 (O75582 whole entry): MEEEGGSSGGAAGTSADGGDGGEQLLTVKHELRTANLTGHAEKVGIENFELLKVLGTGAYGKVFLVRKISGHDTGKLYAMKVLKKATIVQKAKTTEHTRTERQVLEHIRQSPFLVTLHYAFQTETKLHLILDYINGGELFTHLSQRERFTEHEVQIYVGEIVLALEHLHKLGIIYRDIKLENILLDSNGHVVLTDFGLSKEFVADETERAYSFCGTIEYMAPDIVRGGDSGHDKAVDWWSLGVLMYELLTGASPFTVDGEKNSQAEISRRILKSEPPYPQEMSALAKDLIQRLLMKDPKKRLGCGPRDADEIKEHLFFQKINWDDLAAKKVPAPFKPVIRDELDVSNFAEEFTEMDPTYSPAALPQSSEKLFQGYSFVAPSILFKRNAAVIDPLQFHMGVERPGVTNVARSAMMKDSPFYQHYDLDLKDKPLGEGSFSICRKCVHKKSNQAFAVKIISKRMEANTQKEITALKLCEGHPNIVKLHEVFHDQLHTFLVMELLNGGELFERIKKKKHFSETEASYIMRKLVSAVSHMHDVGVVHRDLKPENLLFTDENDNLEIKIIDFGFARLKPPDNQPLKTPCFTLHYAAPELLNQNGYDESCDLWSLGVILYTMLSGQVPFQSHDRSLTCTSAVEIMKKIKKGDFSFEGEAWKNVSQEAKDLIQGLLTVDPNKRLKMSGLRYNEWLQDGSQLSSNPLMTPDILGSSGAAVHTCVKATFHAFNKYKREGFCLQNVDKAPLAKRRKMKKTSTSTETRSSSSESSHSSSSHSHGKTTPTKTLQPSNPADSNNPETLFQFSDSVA

[11] = biological target: Mitogen-activated protein kinase 1 (Homo sapiens, UniProt P28482); experiment: Inhibition of ERK2
Sequence of Mitogen-activated protein kinase 1 (P28482 whole entry): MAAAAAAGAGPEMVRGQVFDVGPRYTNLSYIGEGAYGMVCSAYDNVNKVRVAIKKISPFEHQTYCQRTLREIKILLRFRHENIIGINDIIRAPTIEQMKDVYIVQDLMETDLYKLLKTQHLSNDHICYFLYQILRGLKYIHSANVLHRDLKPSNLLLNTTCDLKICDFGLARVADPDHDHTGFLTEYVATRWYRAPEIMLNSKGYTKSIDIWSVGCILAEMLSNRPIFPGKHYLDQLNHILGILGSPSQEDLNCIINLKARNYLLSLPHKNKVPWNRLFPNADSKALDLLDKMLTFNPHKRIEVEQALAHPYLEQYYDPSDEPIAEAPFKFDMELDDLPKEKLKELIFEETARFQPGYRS

Compound: COc1ccc2[nH]c3c(c2c1)C1CCN(C1)C3C(=O)OCc1ccccc1 (centres undefined)
IC50 [1]: 1.7 µM

Compound: CCCOC(=O)C1c2[nH]c3ccc(OC)cc3c2C2CCN1C2 (centres undefined)
IC50 [1]: 0.83 µM
Activity [2]: 84%

Compound: C=CCOC(=O)C1c2[nH]c3ccc(OC)cc3c2C2CCN1C2 (centres undefined)
IC50 [1]: 14.4 µM

Compound: COc1ccc2[nH]c3c(c2c1)C1CCCN(C1)C3C(=O)O (centres undefined)
IC50 [8]: 160 µM

Compound: CCOC(=O)C1c2[nH]c3ccc(OC)cc3c2C2CCN1C2 (centres undefined)
IC50 [1]: 5.6 µM

Compound: COc1ccc2[nH]c3c(c2c1)CCNC3C(=O)O (centres undefined)
IC50 [4]: > 200 µM
IC50 [5]: > 100 µM
IC50 [11]: > 100 µM
IC50 [6]: > 200 µM
IC50 [7]: 19 µM
IC50 [8]: > 200 µM
IC50 [10]: > 200 µM

Compound: COc1ccc2[nH]c3c(c2c1)C1CCN(C1)C3C(=O)OC(C)c1ccccc1 (centres undefined)
IC50 [1]: 10.3 µM

More lines, now with the values ahead:

IC50 [3]: 130 µM
Compound: COc1ccc2[nH]c3c(c2c1)CCNC3c1nnn[nH]1 (centres undefined)

IC50 [4]: > 200 µM
IC50 [5]: > 100 µM
IC50 [6]: > 200 µM
IC50 [7]: 24 µM
IC50 [1]: 80.8 µM
IC50 [8]: 90 µM
IC50 [9]: > 200 µM
IC50 [10]: > 200 µM
Compound: COc1ccc2[nH]c3c(c2c1)C1CCN(C1)C3C(=O)O (centres undefined)

IC50 [3]: 170 µM
Compound: CC(=O)Oc1ccc2[nH]c3c(c2c1)CCNC3C(=O)O (centres undefined)
